Data from paper PMC4466507, “Seneca Valley Virus 3C^pro Substrate Optimization Yields Efficient Substrates for Use in Peptide-Prodrug Therapy” (PLoS ONE, 2015).
“And” between values parts separate entries of the source, which are not always exact repeats. Equal entries are not always repeated.

Experiments:
[1] = target: T1, SVV-001 3C^pro produced during SVV-001 infection of NCI-H446 cells (Seneca Valley virus, UniProt Q155Z9); test: Fluorescently quenched peptide cellular assay (SVV-001 infected NCI-H446 cells); type: cell-based, Seneca Valley Virus (SVV-001); details: FQ peptide 3 μM; for cleavage (increase in fluorescence) with SVV-001 infected cells / cleavage (increase in fluorescence) with uninfected cells: 3 hours at 37°C
T1 construct: 3C^pro released during a lytic viral infection is the sole source of the 3C^pro; endogenous in cells; host or cells: NCI-H446 (human SCLC) cells infected with wild-type SVV-001 for 8 h
T1 sequence (Q155Z9 1508-1719): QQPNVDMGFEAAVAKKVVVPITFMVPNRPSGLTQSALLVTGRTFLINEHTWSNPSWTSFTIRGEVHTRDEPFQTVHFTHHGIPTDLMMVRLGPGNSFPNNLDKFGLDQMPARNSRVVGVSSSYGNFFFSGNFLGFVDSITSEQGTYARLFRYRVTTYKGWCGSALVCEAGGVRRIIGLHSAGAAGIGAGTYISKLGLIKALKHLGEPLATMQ
Protocol: (§1) All SVV-001 stocks were cultured and purified as described previously and virus titers were determined by tissue culture infective dose (TCID50). The SCLC cell line, NCI-H446 (ATCC) was cultured in RPMI 1640 media (Quality Biological) supplemented with 10% fetal bovine serum (HyClone). The cell line NCI-H446 is routinely tested and authenticated by short tandem repeat (STR) analysis by DDC Medical and was last authenticated six months before submission.
A similar cellular assay was performed as described in the previous paragraph with the exception of using the CPQ2/5-FAM L/VP4.1 and NHL fluorogenic peptides described earlier. After an 8 hour infection with SVV-001, NCI-H446 cells were removed from the cell culture dish using phenol-red free RPMI 1640 media supplemented with 0.1% ethylenediaminetetraacetic acid (EDTA, Sigma) to aid in gentle cell detachment, and pelleted via centrifugation. Pellets were resuspended in phenol-red free RPMI 1640 prior to plating in black opaque 96 well plates as above. CPQ2/5-FAM peptides, L/VP4.1 or NHL were added at a final concentration of 3 μM to plated cells and incubated for 3 hours at 37°C. Fluorescence emissions at 520 nm, corresponding to the liberated 5-FAM fluorophore peptide cleavage product was followed after excitation at 490 nm by a Synergy Neo multimode plate reader (Biotek) every 60 s. The experiment was performed in triplicate in a 96 well flat bottom black opaque plate and average fluorescence units were used to observe changes in fluorescence. Standard curves of 5-FAM fluorescence vs. concentration were generated to convert the relative fluorescence units to moles of cleaved product generated during the reaction. Initial rates of hydrolysis were calculated from data during the first 10 minutes of the reaction and averaged from 3–4 separate experiments. Uncertainty is expressed by standard deviation and shown with error bars.

Plasma stability assay = type: in vitro ADME; details: pooled, 50% plasma/water, peptide 20 μM, 1 hour at 37°C; for change in fluorescence relative to plasma alone: human plasma, fluorescence read-out (ex 490 nm/em 520 nm) every 60 s, triplicate
Protocol: Human plasma was obtained from pooled discarded clinical samples less than 6 hrs old. Human plasma was isolated from whole blood by centrifugation, pooled, and diluted 1:1 with distilled H2O (Gibco). The L/VP4.1 and NHL fluorogenic peptides (20 μM) were incubated with plasma for 1 h at 37°C. Fluorescence emissions were obtained as described above by a DTX 880 multimode detector ([…]) every 60 s. Experiments were performed in triplicate in a 96 well flat bottom black opaque plate and the average fluorescence units were used to observe changes in fluorescence. Uncertainty is expressed by standard deviation.

[2] = target: T1, SVV-001 3C^pro produced during SVV-001 infection of NCI-H446 cells; test: FRET substrate cellular assay (SVV-001 infected NCI-H446 cells); type: cell-based, Seneca Valley Virus (SVV-001); details: FP substrate 200 nM, NCI-H446 cells after 8 h SVV-001 infection, 3 h at 37°C
Protocol: as §1
Cells (1.6 × 10^7) were plated on a 150 mm cell culture dish (Corning) and allowed to recover overnight at 37°C. Each plate was inoculated with SVV-001 at the TCID50 and infected cells were incubated at 37°C for 8 h. After aspiration of the media, cells were mechanically lifted from the plate in phenol-red free RPMI 1640 media (Gibco) and pelleted by centrifugation. […] During the substrate incubation the change in FRET was measured with a Tecan Safire fluorimeter as described above. Conversion of the L/VP4.1 substrate to cleaved substrate was calculated by dividing the change in the FRET ratio at each time point by the total change in the FRET ratio corresponding to complete cleavage of the substrate. The conversion of the NHL substrate was similarly determined by dividing the change in the FRET ratio of the NHL at each time point by the total change in the FRET ratio of the L/VP4.1 substrate corresponding to complete cleavage. […]

SVV-001 3C^pro = target: T2, SVV-001 3C^pro (Seneca Valley virus, UniProt Q155Z9); test: FRET substrate cleavage assay with purified recombinant SVV-001 3C^pro; type: biochemical, Seneca Valley Virus (SVV-001); details: for kcat/KM: CyPet/YPet FRET fusion protein substrate 200 nM, PBS pH 7.4, 30°C, average of 5–7 experiments, uncertainty SD, N/A where no cleavage was measurable; for kcat/KM / cleavage by SVV-001 3C^pro (result in words): 3 h; for Relative to WT: kcat/KM relative to endogenous L/VP4 FRET substrate; for cleavage by SVV-001 3C^pro (result in words): FRET fusion protein substrate 200 nM, 30°C
T2 construct: made in house; host or cells: E. coli BL21 AI
T2 sequence (Q155Z9 1509-1719): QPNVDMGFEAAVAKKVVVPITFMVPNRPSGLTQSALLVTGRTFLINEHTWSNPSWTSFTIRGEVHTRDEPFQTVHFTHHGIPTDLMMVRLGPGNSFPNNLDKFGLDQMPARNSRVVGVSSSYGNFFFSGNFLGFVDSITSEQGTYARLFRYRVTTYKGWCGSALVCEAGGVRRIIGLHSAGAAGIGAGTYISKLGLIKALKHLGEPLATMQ
Protocol: (§2) Reactions were performed in PBS, pH 7.4 and 200 nM FRET substrate in a total volume of 100 μL. Substrates were incubated with 250 nM SVV-001 3C^pro at 30°C for 3 h. Human rhinovirus (HRV) control substrate was incubated with recombinant HRV 3C^pro under the same conditions. Fluorescence emissions at 475 nm and 527 nm, corresponding to CyPet and YPet respectively, were followed after excitation at 433 nm every 180 s by a Safire fluorimeter (Tecan). All experiments were performed in triplicate. FRET ratios (YPet fluorescence/CyPet fluorescence) were calculated at each timepoint. Conversion of each substrate to cleaved substrate was calculated by dividing the change in the FRET ratio at each timepoint by the total change in the FRET ratio corresponding to complete cleavage of the substrate. Using the equation from Boulware et al., conversion data was plotted vs. time (s) and fit with the equation: […] where [E] is the 3C^pro concentration (M) and t is time (s). The second order rate constant (k cat/K M) was determined by the curve fit using GraphPad Prism software. Reported values are the average k cat/K M values of 5–7 experiments. Uncertainty is expressed by standard deviation. Error bars on data points were removed for figure clarity.

HRV 3C^pro = target: T3, HRV 3C^pro (Human rhinovirus 14, UniProt P03303); test: FRET substrate cleavage assay with recombinant HRV 3C^pro; type: biochemical
T3 construct: Recombinant HRV 3C Protease was purchased from Sigma; purchased Sigma
T3 sequence (P03303 1538-1719): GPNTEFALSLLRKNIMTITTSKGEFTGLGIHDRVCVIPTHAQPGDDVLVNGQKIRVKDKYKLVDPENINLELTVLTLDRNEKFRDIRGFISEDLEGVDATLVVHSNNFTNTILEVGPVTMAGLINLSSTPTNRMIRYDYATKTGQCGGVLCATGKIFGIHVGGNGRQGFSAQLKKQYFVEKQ
Protocol: as §2
Supplementary file pone.0129103.s004.tif: S4 Fig Comparison of SVV 3C^pro- L/VP4.1 Substrate Specificity to Selected Picornavirus Protease-Substrate Pairs. A. Substrates L/VP4.1 (labeled SVV), HRV, and Coxsackievirus (CAV) 2C/3A substrate (labeled CAV) with amino acid sequence MEALFQ↓GP were incubated with 250 nM SVV 3C^pro (black data points), HRV 3C^pro (blue data points), or CAV 3C^pro (red data points) for 3 hours at 30°C. CAV 3C^pro was cloned, overexpressed, and purified using the same methods described for SVV 3C^pro in the Methods section. The decrease in FRET was measured in real time using a fluorimeter and data was converted to display fraction of substrate converted to hydrolyzed substrate over time. Data points represent the average of three replicates at each time point. […]

CAV 3C^pro = test: FRET substrate cleavage assay with CAV 3C^pro; type: biochemical, Coxsackie A virus (CAV); details: 250 nM CAV 3C^pro, 3 hours at 30°C
Protocol: Supplementary file pone.0129103.s004.tif: S4 Fig Comparison of SVV 3C^pro- L/VP4.1 Substrate Specificity to Selected Picornavirus Protease-Substrate Pairs. A. Substrates L/VP4.1 (labeled SVV), HRV, and Coxsackievirus (CAV) 2C/3A substrate (labeled CAV) with amino acid sequence MEALFQ↓GP were incubated with 250 nM SVV 3C^pro (black data points), HRV 3C^pro (blue data points), or CAV 3C^pro (red data points) for 3 hours at 30°C. CAV 3C^pro was cloned, overexpressed, and purified using the same methods described for SVV 3C^pro in the Methods section. The decrease in FRET was measured in real time using a fluorimeter and data was converted to display fraction of substrate converted to hydrolyzed substrate over time. Data points represent the average of three replicates at each time point. B. Heat map depicting relative rates of cleavage for protease-substrate pairs compared to the native protease-substrate pair. (TIF) Click here for additional data file.

[3] = NCI-H446 cells after 8 hour SVV-001 infection
[4] = FRET fusion protein substrate, 250 nM SVV-001 3C^pro

CPQ2-GGSGGS-K(5FAM)-KK-NH2 [NHL FQ peptide, non-hydrolysable linker peptide CPQ2-GGSGGS-K(5FAM)-KK-NH2, negative control, reference compound]
cleavage (increase in fluorescence) with SVV-001 infected cells [1, 3]: not cleaved
cleavage (increase in fluorescence) with uninfected cells ([1]; uninfected NCI-H446 cells): not cleaved

CPQ2-IVYELQGP-K(5FAM)-KK-NH2 [L/VP4.1 FQ peptide]
change in fluorescence relative to plasma alone (Plasma stability assay): no significant change in fluorescence
stability in human plasma (conclusion) (Plasma stability assay; fluorescence read-out): stable
initial rate of reaction, SVV infected cells ([1]; NCI-H446 cells after 8 hour SVV-001 infection, 37°C, first 10 minutes, averaged from 3–4 experiments, SD): 0.446 ± 0.0056 pmol/s
cleavage (increase in fluorescence) with SVV-001 infected cells [1, 3]: significant increase in fluorescence
initial rate of reaction, uninfected cells ([1]; uninfected NCI-H446 cells, 37°C, first 10 minutes, averaged from 3–4 experiments, SD): 0.168 ± 0.0025 pmol/s
cleavage (increase in fluorescence) with uninfected cells ([1]; uninfected NCI-H446 cells): did not show an appreciable increase in fluorescence

GGSGGS [NHL, non-hydrolysable linker FP substrate (GGSGGS), negative control, reference compound]
change in fluorescence relative to plasma alone (Plasma stability assay): no significant change in fluorescence
loss of FRET (cleavage) with SVV-001 infected cells [2]: did not show a loss of FRET

IVFELQGP [L/VP4.3, L/VP4.1 FRET substrate with P4 Y→F substitution]
kcat/KM (SVV-001 3C^pro; 250 nM SVV-001 3C^pro): 12160 M⁻¹ s⁻¹
cleavage less efficient than the L/VP4.1 Pro variant (SVV-001 3C^pro; [4]): 30%
Relative to WT (SVV-001 3C^pro): 6.3

IVMELQGP [L/VP4.4, L/VP4.1 FRET substrate with P4 Y→M substitution]
kcat/KM (SVV-001 3C^pro; 250 nM SVV-001 3C^pro): 10344 M⁻¹ s⁻¹
cleavage less efficient than the L/VP4.1 Pro variant (SVV-001 3C^pro; [4]): 40%
Relative to WT (SVV-001 3C^pro): 5.3

IVYELQGN [L/VP4, endogenous SVV-001 3C^pro cleavage site IVYELQGN cloned between CyPet and YPet as FRET fusion protein substrate]
kcat/KM (SVV-001 3C^pro; 250 nM SVV-001 3C^pro): 1932 ± 183 M⁻¹ s⁻¹ and 1932 M⁻¹ s⁻¹
cleavage by SVV-001 3C^pro (result in words) (SVV-001 3C^pro; 250 nM SVV-001 3C^pro): efficiently cleaved

IVYELQGP [L/VP4.1, L/VP4 with Q↓GP (P2’ N→P substitution), FRET fusion protein substrate]
turnover by non-native 3C protease (HRV 3C^pro) (HRV 3C^pro; FRET substrate, 250 nM HRV 3C^pro, 3 hours at 30°C): no turnover
turnover by non-native 3C protease (CAV 3C^pro) (CAV 3C^pro): no turnover
loss of FRET (cleavage) with SVV-001 infected cells [2]: Loss of FRET
kcat/KM (SVV-001 3C^pro; 250 nM SVV-001 3C^pro): 17446 ± 2203 M⁻¹ s⁻¹ and 17446 M⁻¹ s⁻¹
increase of kcat/KM relative to L/VP4 (SVV-001 3C^pro; [4]): approximately 9 fold
Relative to WT (SVV-001 3C^pro): 9.0

IVYELQ↓SP [L/VP4.9, P1’ GN→SP substituted form of L/VP4 (IVYELQ↓SP) cloned between CyPET and YPET]
cleavage by SVV-001 3C^pro (result in words) (SVV-001 3C^pro; 250 nM SVV-001 3C^pro): increased turnover efficiency over L/VP4, but was inferior to L/VP4.1

IVYEPQGP [L/VP4.2, L/VP4.1 FRET substrate with P2 L→P substitution]
cleavage by SVV-001 3C^pro (result in words) (SVV-001 3C^pro; 250 nM SVV-001 3C^pro): not efficiently cleaved in 3 hours

KLFKMQGP [2B/2C, endogenous SVV-001 cleavage site KLFKMQGP cloned between CyPet and YPet as FRET fusion protein substrate]
kcat/KM (SVV-001 3C^pro; 250 nM SVV-001 3C^pro): 1204 ± 146 M⁻¹ s⁻¹ and 1204 M⁻¹ s⁻¹
cleavage by SVV-001 3C^pro (result in words) (SVV-001 3C^pro; 250 nM SVV-001 3C^pro): efficiently cleaved

LEVLFQGP [HRV, optimized human rhinovirus 3C^pro FP substrate (LEVLFQGP), positive control]
kcat/KM (HRV 3C^pro; CyPet/YPet FRET fusion protein substrate 200 nM, recombinant HRV 3C^pro, PBS pH 7.4, 30°C, 3 h, average of 5–7 experiments, uncertainty SD): 5079 ± 528 M⁻¹ s⁻¹ and 5079 M⁻¹ s⁻¹
kcat/KM higher than either SVV FP substrate (L/VP4, 2B/2C) (HRV 3C^pro; HRV FP substrate with HRV 3C^pro versus SVV FP substrates with SVV-001 3C^pro): 3-4 fold

VYELQGP [L/VP4.5, P6 truncation of L/VP4.1 FRET substrate]
kcat/KM (SVV-001 3C^pro; 250 nM SVV-001 3C^pro): 9839 M⁻¹ s⁻¹
decrease of turnover efficiency of cleavage from L/VP4.1 (SVV-001 3C^pro; [4]): ~2 fold
Relative to WT (SVV-001 3C^pro): 5.1

YELQGP [L/VP4.6, P5/P6 truncation of L/VP4.1 FRET substrate]
kcat/KM (SVV-001 3C^pro; 250 nM SVV-001 3C^pro): 1939 M⁻¹ s⁻¹
Relative to WT (SVV-001 3C^pro): 1.0
